Experimental findings from PubChem BioAssay AID179 (DTP/NCI, 2004) are described below.

The source made the active and inactive calls.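 How the source made its calls: active means compounds giving half or more protection of infected cells from virus-caused growth loss, again on retest; inactive means the rest.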

The test system of the assay is CEM cells HIV-1 protection, formazan growth assay. As to the kind of experiment: NCI AIDS Antiviral Assay. Conditions: for IC50: measured here: growth of uninfected CEM cells. The gist of the method: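 Category rules: moderately active means at least 50% protection on retest, and confirmed active means 100% protection reproducibly. The underlying data came from a formazan growth assay in HIV-1-infected CEM cells.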

In the case of `COc1cc(Br)c(/C(=C\c2ccccc2N)C(=O)O)cc1OC`, the result was inactive. As a reminder, the EC50 is the concentration needed to bring the measured effect to its halfway point. One may read the IC50 as the concentration needed to halve the response being measured. A high value points to a need for much substance. For the compound `O=C(c1ccc(Cl)cc1)c1ccc(OCCCCCCCCCCOc2ccc(C(=O)c3ccc(Cl)cc3)cc2)cc1`, the EC50 is greater than 16.6 µM and the IC50 was greater than 16.6 µM. As for `CC(C)c1cccc(C(C)C)c1NC(=O)C(=O)C1SC(=S)NC1=O` (centres undefined), the EC50 is greater than 692 µM and the IC50 was greater than 692 µM. Consider `O=c1oc2ccccc2c(O)c1C(c1ccccc1)c1c(O)c2ccccc2oc1=O`, for which the EC50 is greater than 200 µM and the IC50 was found to be 33.1 µM. Take `CC1=CC(=C(c2cc(C)c(O)c(C(=O)O)c2)c2cc(C)c(O)c(C(=O)O)c2)C=C(C(=O)O)C1=O`: the outcome was inactive.

As for `CC1=C(C(=O)Nc2ccccc2C)C(c2ccc(Cl)cc2)C(C(=O)Nc2ccccc2C)=C(C)N1`, the EC50 is greater than 2.95 µM and the IC50 was greater than 2.95 µM. With `O=S(=O)(OCCCCOS(=O)(=O)c1ccc(Cl)c(Cl)c1)c1ccc(Cl)c(Cl)c1`, the result was inactive. For `Cc1cc(NS(=O)(=O)c2ccc(NC(=O)c3cccc4c(N)c5ccccc5nc34)cc2)no1`, the EC50 was greater than 93.3 µM and the IC50 came out at 43.7 µM.

On to `O=C(/C=C/c1ccccc1)c1ccc(Oc2ccccc2)cc1`, for which the EC50 was greater than 200 µM and the IC50 came out at 23.4 µM. For `CCOC(=O)/C(CCCC#N)=N/O`, in that order: greater than 200 µM and greater than 200 µM. As for `O=C1CS(=O)c2ccccc2N1` (centres undefined), the EC50 is greater than 372 µM and the IC50 is greater than 372 µM.

In the case of `NC(c1ccccc1)(C(F)(F)F)P1(=O)OC(=O)c2ccccc2O1` (centres undefined), the EC50 is greater than 200 µM and the IC50 is greater than 200 µM.

Turning to `O=P(O)(O)c1ccc(-c2ccc(I)cc2)cc1`, the EC50 was greater than 200 µM and the IC50 is greater than 200 µM.

Turning to `CCOC(=O)C[n+]1cccc(C2(c3cc4ccccc4[nH]3)OCCO2)c1`, the EC50 was greater than 200 µM and the concentration for half-maximal inhibition (IC50) is greater than 200 µM. As for `CS(=O)(=O)OCCCS(=O)(=O)O`, the EC50 is greater than 200 µM and the IC50 was greater than 200 µM.

As for `CCCCCCCCCCCCCCCCCCOCC(O)COP(=O)(O)OCC1OC(n2cc(C)c(=O)[nH]c2=O)CC1N=[N+]=[N-]` (centres undefined), the EC50 was greater than 100 µM and the IC50 turned out to be 31.6 µM. The corresponding values for `COc1ccc2c(c1O)C13CCN(C)C(C2)C12C=CC(=O)C3c1c(O)ccc(O)c12` (centres undefined) are greater than 200 µM and 2.95 µM.

On to `C#C[C@]1(O)CCC2C3CCc4cc(Oc5nc(F)nc(-c6c7cc8ccccc8cc7c7n6CCS7)n5)ccc4C3CCC21C` (some centres undefined), for which the EC50 was greater than 200 µM and the IC50 is 25.1 µM. Consider `CC(=O)Nc1cc2nc3n(c2cc1C)CCC3OC(C)=O` (centres undefined), for which the EC50 was greater than 200 µM and the IC50 is greater than 200 µM. As to `CC1=C(C(=O)Nc2ccccc2C)C(c2ccc(C3C(C(=O)Nc4ccccc4C)=C(C)NC(C)=C3C(=O)Nc3ccccc3C)cc2)C(C(=O)Nc2ccccc2C)=C(C)N1`, the result was inactive. In the case of `CC1(C)CN=CC(C)(OCc2ccccc2)C(=O)NC(C)(C)CN=CC(C)(OCc2ccccc2)C(=O)N1` (centres undefined), the EC50 was greater than 7.24 µM and the half-maximal inhibitory concentration (IC50) was greater than 7.24 µM. With `CC1=NN2C(c3ccc([N+](=O)[O-])cc3)=CSC2=NC(C)(C)C1`, the EC50 is greater than 158 µM and the IC50 is greater than 158 µM. As to `O=[N+]([O-])c1ccc(NCCS(=O)(=O)O)c([N+](=O)[O-])c1`, the EC50 was greater than 794 µM and the IC50 was greater than 794 µM. Regarding `Cc1cc2c(c(=O)n1C)SCC2`, the EC50 was greater than 200 µM and the IC50 is greater than 200 µM. Turning to `O=S(=O)(/N=S(/Nc1ccccc1)C(F)(F)Cl)c1ccccc1` (centres undefined), the EC50 is greater than 200 µM and the IC50 was greater than 200 µM. Regarding `Nc1ncnc2c1ncn2C1OC(C(O)CO)C(O)C1O` (centres undefined), the EC50 is greater than 200 µM and the IC50 was greater than 200 µM.

In the case of `CCSC1=N/C(=C\c2ccccc2O)C(Nc2ccc(C)cc2)=N1`, the EC50 was greater than 100 µM and the IC50 was greater than 100 µM. For the compound `Brc1ccc(N=NN2CCCCC2)cc1`, the EC50 is greater than 200 µM and the IC50 worked out at 18.6 µM. The corresponding values for `CNC(=O)OCn1cnc(Cl)c1Cl` are greater than 200 µM and greater than 200 µM. With `Cc1cccc(C)c1NC(=O)C(=O)CC(=O)c1cccc([N+](=O)[O-])c1`, the EC50 was greater than 525 µM and the IC50 was greater than 525 µM. In the case of `O=S1(=O)C[C@H](NCc2ccccc2)[C@H](NCc2ccccc2)C1`, the EC50 is greater than 200 µM and the IC50 was 107 µM.

As for `COC(=O)[C@@H]1OC(C)(c2ccccc2)O[C@H]1C(=O)OC`, the EC50 was greater than 200 µM and the IC50 is greater than 200 µM. Take `CCCCCCCCCCCCC/C=C\[C@@H](OC(=O)c1ccccc1)C(CO)N=[N+]=[N-]` (some centres undefined): the result was inactive. On to `CNC(=O)[C@H](Cc1ccccc1)NC(=O)N(CCC#N)CCN(C(=O)N[C@@H](Cc1ccccc1)C(=O)OC)c1ccccc1`, for which the EC50 is greater than 200 µM and the IC50 is greater than 200 µM. As to `CCCCCSP(=S)(C(C)C)C(C)C`, the EC50 was greater than 200 µM and the IC50 is 115 µM. As for `Cc1cc(C(C)C)cc(O)c(=O)c1`, the outcome was inactive. For the compound `COC(C/C(=C/CO[Si](C(C)C)(C(C)C)C(C)C)C(=O)N(COCC[Si](C)(C)C)c1ccccc1I)OC`, the EC50 was greater than 200 µM and the IC50 is 32.4 µM. For `O=C(O)/C=C/c1ccc([N+](=O)[O-])cc1`, in that order: greater than 97.7 µM and greater than 97.7 µM. The corresponding values for `O=C1C=C(Nc2ccccc2)c2ccccc2C1=O` are greater than 11 µM and greater than 11 µM. With `COc1cc(-c2nc(SC)nc3c2CCc2ccccc2-3)cc(OC)c1OC`, the EC50 is greater than 200 µM and the IC50 was greater than 200 µM. Regarding `O=C(CCNNC(=O)c1ccncc1)NCc1ccccc1`, the EC50 was greater than 200 µM and the IC50 was greater than 200 µM. Turning to `O=Nc1ccc2ccccc2c1O`, the EC50 was greater than 200 µM and the IC50 was 4.27 µM. Take `Cc1ccccc1N1C(=O)[N+]2(CCCCC2)N=C1[O-]`: the EC50 was greater than 955 µM and the IC50 amounted to 295 µM. With `O=C(Nc1ccc(S(=O)(=O)Nc2ccc(N=Nc3ccc(S(=O)(=O)Nc4nccs4)cc3)cc2)cc1)C(N1CC1)(N1CC1)N1CC1`, the EC50 is greater than 200 µM and the IC50 was 129 µM. On to `O=c1[nH][nH]c(=O)n1Cc1ccccc1Cn1c(=O)[nH][nH]c1=O`, for which the EC50 is greater than 100 µM and the IC50 was greater than 100 µM. Turning to `N#Cc1nc(-c2ccco2)oc1N`, the EC50 is greater than 200 µM and the half-maximal inhibitory concentration (IC50) is greater than 200 µM. With `O=c1c(SCc2ccccc2F)c(SCc2ccccc2F)cnn1-c1ccccc1`, the EC50 was greater than 11.5 µM and the IC50 is 4.9 µM. Consider `COC(=O)C(/C(=N\O)C(=O)Nc1cccc(Cl)c1C)c1cnc2ccccc2n1` (centres undefined), for which the EC50 is greater than 17.4 µM and the half-inhibitory concentration (IC50) is greater than 17.4 µM. For the compound `CN1CC2=C(NCNS2(=O)=O)N(C)C1`, the EC50 is greater than 148 µM and the IC50 was greater than 148 µM.

`Cc1cccc(C(C)C)c1NC(=O)/C(Cc1c([N+](=O)[O-])cccc1[N+](=O)[O-])=N/NC(=O)CC#N`: the EC50 was greater than 145 µM and the IC50 is greater than 145 µM. Turning to `CC(=O)OC1CCC(OC(C)=O)[C@H]2[C@@H]1[C@@H]1S[C@H]2c2ccccc21` (some centres undefined), the EC50 was greater than 200 µM and the IC50 is 42.7 µM. For `Cc1ccc(S(=O)(=O)N/N=C\C2c3ccccc3-c3ccccc32)cc1`, in that order: greater than 200 µM and 2.19 µM. Regarding `Cc1ccc(S(=O)OC2c3ccccc3Cc3ccccc32)cc1` (centres undefined), the outcome was inactive.

As for `COC(=O)C1(C(=O)OC)N=C(C)OC1c1ccoc1` (centres undefined), the EC50 is greater than 200 µM and the IC50 is greater than 200 µM. Turning to `O=C(COc1ccc(OCC(=O)N2C(=O)CN(c3ccc(Cl)cc3)C2=S)cc1)N1C(=O)CN(c2ccc(Cl)cc2)C1=S`, the EC50 is greater than 200 µM and the IC50 came to 43.7 µM. With `CCN(CC)C(=S)SNCCc1ccc(S(N)(=O)=O)cc1`, the EC50 is greater than 200 µM and the IC50 is 10.5 µM. As for `O=CNc1ccccc1OCCOc1ccccc1NC=O`, the EC50 was greater than 200 µM and the IC50 was greater than 200 µM. Regarding `Cc1cccc2c1CC(C1OC(=O)c3c(C)cccc31)C2=O` (centres undefined), the EC50 was greater than 200 µM and the IC50 turned out to be 120 µM. `c1cc(NC2=NCCO2)c2c(c1)OCO2`: the EC50 was greater than 200 µM and the IC50 was greater than 200 µM. Regarding `CCCCCCc1nn2c(-c3ccncc3)nnc2s1`, the EC50 is greater than 100 µM and the IC50 came out at 52.5 µM. `CC(SC(C)C(=O)N/N=C/c1ccc(B(O)O)cc1)C(=O)N/N=C\c1ccc(B(O)O)cc1` (centres undefined): the EC50 was greater than 200 µM and the IC50 was greater than 200 µM. For the compound `CONC(CC(=O)c1ccccc1)c1ccccc1` (centres undefined), the EC50 was greater than 4.07 µM and the IC50 was greater than 4.07 µM. As to `O=C(CCCNC(=O)OCc1ccccc1)OCc1ccc2c(c1)C(=O)c1ccccc1C2=O`, the EC50 was greater than 200 µM and the IC50 was greater than 200 µM. For `N#CC1CC2(C(=O)C1=O)c1ccccc1-c1ccccc12` (centres undefined), the result was inactive. With `NC(N)=Nc1ccccc1SSc1ccccc1N=C(N)N`, the half-maximal effective concentration (EC50) was 8.13 µM and the IC50 worked out at 52.5 µM. `C=C1C(C)C2C(Cc3ccccc3)NC(=O)C23C(OC(C)=O)/C=C/C(C)(O)CC(C)C/C=C/C3C1O` (centres undefined): the EC50 is greater than 2 µM and the IC50 worked out at 0.0977 µM. Turning to `Nc1nc(=S)c2[nH]cnc2[nH]1`, the EC50 is greater than 60.3 µM and the IC50 was 0.955 µM. With `CCOC(=O)c1c(N)nnc(-c2ccccc2)c1-c1ccccc1`, the EC50 was greater than 200 µM and the IC50 came to 129 µM. Take `O=C(Nc1ccc(C(=O)Nc2ccc(C3=NCCCN3)cc2)cc1)Nc1ccc(C2=NCCCN2)cc1`: the EC50 is greater than 200 µM and the IC50 is 17 µM.

Consider `CNC(=O)C(C)C1C(=O)/C(=C(O)/C=C\C(C)=C\C(C)C2OC3(C)OC(C=CC34CO4)C2C)C(=O)N1C1CCC(O)C(C)O1` (centres undefined), for which the EC50 was greater than 31.6 µM and the IC50 is greater than 31.6 µM. For `CC1=N/C(=C\c2cccc(Cl)c2)C(=O)O1`, the EC50 is greater than 85.1 µM and the IC50 is greater than 85.1 µM.
